Patent US6562978B1, “Cyclic amine compounds as CCR5 antagonists” (Takeda Chemical Industries, Ltd., priority 1999, dated 2003)
Where a name gives a salt, the structure may show the parent alone.

Test system: HIV-1 Ba-L
Test: Inhibitory effect on HIV-1 infection to MAGI-CCR5 cell (blue cell count, β-galactosidase)
Assay type: cell-based
Details: Human immunodeficiency virus 1, BAL, 48 h; final concentration of Test Compound 0.032 μM; MAGI-CCR5 cells; 300PFU HIV-1 Ba-L; 37° C. for 2 days
Experimental: By using said transformant MAGI-CCR5, degree of HIV-1 infection was calculated from β-galactosidase activity (blue color due to decomposition of 5-bromo-4-chloro-3-indolyl-β-D-galactopyranoside). Specifically, MAGI-CCR5 cells were suspended in DMEM medium containing 10% serum to prepare 5×10^4 cells/ml suspension. To each well of 96 well plate was inoculated 200 μM of the suspension, and the cells were cultivated at 37° C. overnight. The medium was removed by means of suction, and to the residue was added 100 μM of the above medium containing 0.064 μM of Test Compound and 100 μM of the above medium containing 300PFU of HIV-1 Ba-L cells. The final concentration of Test Compound was 0.032 μM. The cells were cultivated at 37° C. for 2 days. The medium was removed by means of suction. To the residue was added 200 μM of cell fixative (PBS containing 1% formaldehyde and 0.2% glutaraldehyde), and the mixture was allowed to stand at room temperature for 5 minutes and washed twice with PBS. To the mixture was added 100 μl of staining solution (PBS containing 4 μM potassium ferrocyanide, 4 μM potassium ferricyanade, 2 μM MgCl2 and 0.4 mg/ml×-gal), and the mixture was allowed to stand at 37° C. for 50 minutes and washed twice with PBS. The number of blue cells was counted by microscope and defined as the number of cells infected with HIV-1.

In order of falling inhibition at 0.032 µM:
1. CC(=O)N1CCC(C(=O)N(CCCN2CCC(Cc3ccc(F)cc3)CC2)c2ccc(Cl)c(Cl)c2)CC1 [Example 468, 1-Acetyl-N-(3,4-dichlorophenyl)-N-{3-[4-(4-fluorobenzyl)-1-piperidinyl]propyl}-4-piperidinecarboxamide Hydrochloride]  97%
2. CC(=O)N1CCC(C(=O)N(CCCN2CCC(Sc3nc4ccccc4s3)CC2)c2cccc(Cl)c2)CC1 [Example 469, 1-Acetyl-N-(3-chlorophenyl)-N-[3-[4-(2-benzthiazolylthio)-1-piperidinyl]propyl]-4-piperidinecarboxamide Hydrochloride]  96%

Target: T1, human CCR5 (Homo sapiens, UniProt P51681)
T1 construct: expressed in transfected cells; whole cells in the well
Test: CCR5 binding assay: inhibition of [125I]-RANTES binding to CHO/CCR5 cells
Details: 1.0 μM test compound, 100 pM [125I]-RANTES, room temperature 40 minutes, read-out: Inhibition Rate (%) at 1.0 μM
Experimental: (1) Cloning of Human CCR5 Chemokine Receptor
Cloning of CCR5 gene was carried out by PCR (polymerase chain reaction) from human spleen cDNA. With using 0.5 ng of spleen cDNA (Toyobo, QUICK-Clone cDNA) as template, PCR was performed in DNA Thermal Cycler 480 (Perkin-Elmer) (reaction conditions: 30 cycles of 95° C. for 1 minute, 60° C. for 1 minute, and 75° C. for 5 minutes) by adding primer set, 5′-[…]-3′ (25 pmol) and 5′-[…]-3′ (25 pmol), which were designed referring to nucleotide sequence of CCR5 gene reported by Samson et al. (Biochemistry, 35(11), 3362-3367 (1996)) and by using TaKaRa EX Taq (Takara Shuzo). The resultant PCR product was subjected to agarose gel electrophoresis to collect about 1.0 kb DNA fragment, which was subjected to Original TA Cloning Kit (Funakoshi) to carry out cloning of CCR5 gene.
(2) Preparation of Plasmid for Expression of Human […]
The plasmid obtained in the above (1) was digested with restriction enzymes XbaI (Takara Shuzo) and BamHI (Takara Shuzo) and subjected to agarose gel electrophoresis to collect about 1.0 kb DNA fragment. The DNA fragment was mixed with plasmid pcDNA3.1 (Funakoshi) for expression in animal cells, said plasmid being digested with XbaI and BamHI, and they were ligated with DNA Ligation Kit Ver.2 (Takara Shuzo). The resulting plasmid was subjected to transformation of competent cell of E. coli JM109 (Takara Shuzo) to obtain plasmid pCKR5.
(3) Introduction of Plasmid for Expression of Human CCR5 into CHO-K1 Cell and Expression of said Plasmid in CHO-KY Cell
CHO-K1 cells were grown in 750 ml of tissue culture flask (Becton Dickinson) using Ham's F12 medium (Nihon Pharmaceutical) containing 10% fetal calf serum (Life Tech Oriental) and took off with 0.5 g/L trypsin-0.2 g/L EDTA (Life Tech Oriental). The cells were washed with PBS (Life Tech Oriental), centrifuged (1000 rpm, 5 minutes), and suspended in PBS. With using Gene Pulser (Bio-Rad Laboratories), DNA was introduced into the cells under the conditions shown below. That is, to the cuvette of 0.4 cm gap were added 8×10^6 cells and 10 μg of plasmid pCKR5 for expression of human CCR5, and electroporation was carried out under 0.25 kV of voltage and […] of capacitance. The cells were transferred into Ham's F12 medium (Nihon Pharmaceutical) containing 10% fetal calf serum, and cultivated for 24 hours. The cells were again took off and centrifuged, and suspended in Ham's F12 medium (Nihon Pharmaceutical) containing 10% fetal calf serum and 500 μg/ml of geneticin (Life Tech Oriental). The suspension was diluted to give 10^4 cells/ml of the suspension, which was inoculated on 96 well plate (Becton Dickinson) to give geneticin resistant cells. The resulting geneticin resistant cells were cultivated in 96 well plate (Becton Dickinson), and cells expressing CCR5 were selected from the geneticin resistant cells. That is, in assay buffer (Ham's F12 medium containing 0.5% BSA and 20 mM HEPES (Wako Pure Chemical, pH7.2) to which was added 200 pM of [^125I]-RANTES (Amersham) as ligand, binding reaction was carried out at room temperature for 40 minutes, and the buffer was washed with cooled PBS. To the buffer was added 50 μl/well of 1M NaOH, and the mixture was stirred. Radioactivity was determined with γ-counter to select CHO/CCR5 cells which specifically bind to the ligand.
(4) Evaluation of Test Compounds Based on CCR5 Antagonistic Activity
The CHO/CCR5 were inoculated on 96 well microplate (5×10^4 cells/well) and cultivated for 24 hours. The medium was removed by means of suction, and to each well was added assay buffer containing Test Compound (191) and then 100 pM of [^125I]-RANTES (Amersham) as ligand. Binding assay was carried out at room temperature for 40 minutes, and assay buffer was removed by means of suction. Each well was washed twice with cooled PBS, and 200 μl of Microscint-20 (Packard Instrument, Inc.) was added to each well.

T1 sequence (P51681 whole entry): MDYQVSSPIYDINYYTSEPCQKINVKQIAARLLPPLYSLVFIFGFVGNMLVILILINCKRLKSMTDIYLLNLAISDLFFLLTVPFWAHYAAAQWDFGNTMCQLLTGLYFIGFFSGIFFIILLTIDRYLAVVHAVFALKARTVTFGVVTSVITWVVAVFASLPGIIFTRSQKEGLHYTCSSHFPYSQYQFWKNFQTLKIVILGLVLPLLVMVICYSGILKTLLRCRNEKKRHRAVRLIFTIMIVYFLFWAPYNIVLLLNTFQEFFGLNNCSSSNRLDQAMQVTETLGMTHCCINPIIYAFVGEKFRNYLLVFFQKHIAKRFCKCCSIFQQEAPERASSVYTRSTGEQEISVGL

In order of falling inhibition at 1 µM:
1. CS(=O)(=O)N1CCC(C(=O)N(CCCN2CCC(Cc3ccc(S(=O)(=O)N4CCOCC4)cc3)CC2)c2ccc(Cl)c(Cl)c2)CC1 [Example 356, N-(3,4-Dichlorophenyl)-1-(methylsulfonyl)-N-(3-{4-[4-(4-morpholinylsulfonyl)benzyl]-1-piperidinyl}propyl)-4-piperidinecarboxamide]  100%
2. CS(=O)(=O)N1CCC(C(=O)N(CCCN2CCC(S(=O)(=O)c3ccc(F)cc3)CC2)c2ccc(Cl)c(Cl)c2)CC1 [Example 190, N-(3,4-Dichlorophenyl)-N-{3-[4-(4-fluorophenylsulfonyl)-1-piperidinyl]propyl}-1-(methylsulfonyl)-4-piperidinecarboxamide]  100%
3. CS(=O)(=O)c1ccc(S(=O)(=O)C2CCN(CCCN(C(=O)C3CCN(S(C)(=O)=O)CC3)c3ccc(Cl)c(Cl)c3)CC2)cc1 [Example 334, N-(3,4-Dichlorophenyl)-1-(methylsulfonyl)-N-[3-(4-{[4-(methylsulfonyl)phenyl]sulfonyl}-1-piperidinyl)propyl]-4-piperidinecarboxamide]  100%
4. Cc1ccc(N(CCCN2CCC(Cc3ccc(C(N)=O)cc3)CC2)C(=O)C2CCN(S(C)(=O)=O)CC2)cc1Cl [Example 470, N-(3-{4-[4-(Aminocarbonyl)benzyl]-1-piperidinyl}propyl)-N-(3-chloro-4-methylphenyl)-1-(methylsulfonyl)-4-piperidinecarboxamide]  99%
5. CC(=O)Nc1ccc(C(=O)N2CCC(C(=O)N(CCCN3CCC(Cc4ccc(F)cc4)CC3)c3ccc(Cl)c(Cl)c3)CC2)cc1 [Example 158, 1-[4-(Acetylamino)benzoyl]-N-(3,4-dichlorophenyl)-N-{3-[4-(4-fluorobenzyl)-1-piperidinyl]propyl}-4-piperidinecarboxamide Trifluoroacetate]  97%
6. CS(=O)(=O)Nc1ccc(CC2CCN(CCCN(C(=O)C3CCN(S(C)(=O)=O)CC3)c3ccc(Cl)c(Cl)c3)CC2)cc1 [Example 313-2, N-(3,4-Dichlorophenyl)-1-(methylsulfonyl)-N-[3-(4-{4-[(methylsulfonyl)amino]benzyl}-1-piperidinyl)propyl]-4-piperidinecarboxamide]  97%
7. CC(=O)N1CCC(C(=O)N(CCCN2CCC(Cc3nccs3)CC2)c2cccc(Cl)c2)CC1 [Example 168, 1-Acetyl-N-(3-chlorophenyl)-N-{3-[4-(2-thiazolylmethyl)-1-piperidinyl]propyl}-4-piperidinecarboxamide Ditrifluoroacetate]  82%
